The subject of one data set is HBV. The following applies: read-out: inhibition of HBV EC50; cited from earlier work.
Data set [1] concerns the target T1, adenosine deaminase (EC 3.5.4.4) (Bos taurus, UniProt P56658).
T1 sequence (P56658 1-363): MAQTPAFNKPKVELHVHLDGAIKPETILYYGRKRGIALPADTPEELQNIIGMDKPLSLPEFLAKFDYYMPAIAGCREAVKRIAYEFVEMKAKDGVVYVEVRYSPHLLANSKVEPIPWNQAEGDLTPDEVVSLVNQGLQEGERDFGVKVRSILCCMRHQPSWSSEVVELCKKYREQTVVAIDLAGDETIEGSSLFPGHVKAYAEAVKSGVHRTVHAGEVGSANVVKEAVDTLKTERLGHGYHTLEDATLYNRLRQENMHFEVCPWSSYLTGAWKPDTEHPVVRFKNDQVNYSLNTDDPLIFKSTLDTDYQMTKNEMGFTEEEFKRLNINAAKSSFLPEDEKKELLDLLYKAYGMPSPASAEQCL
Put plainly: in vitro. As to conditions: bovine, pH 7.4. How it is done:
(§1) Assays were performed at 25° C. in phosphate buffer solution (pH 7.4) with substrate concentrations in the range of 15-100 μM and with 0.15 unit of adenosine deaminase (EC.3.5.4.4. from calf intestinal mucosa). The assays were monitored with a UV spectrometer at 265 nm. Initially, the qualitative assays were performed with D-β-2′-F-4′-S-d4A 24 (200 μM) in the presence of 0.24 unit of adenosine deaminase for 120 minutes to determine whether it is a substrate of this enzyme. The concentration (ct) of each substrate at a certain time (t) was calculated from the absorbance (At) at that time (t), where it was assumed that the total change of absorbance (A0−A∞) was directly related to the disappearance of the substrate.^35 Initial hydrolysis rates for each substrate concentration were measured manually through graphical curve fitting of the concentration versus time data for reaction of each substrate. From Lineweaver-Burke plot of these initial rates, Vmax (maximum velocity) and KM (Michaelis constant) were obtained for each substrate and kcat was also calculated with 0.15 unit of the enzyme (M.W. 33,000) in 2 mL of buffer solution.

Data set [2] concerns the target T2, adenosine deaminase (EC.3.5.4.4. from calf intestinal mucosa) (Bos taurus, UniProt P56658).
T2 sequence (P56658 1-363): T1 sequence (P56658 1-363)
The data set can be described thus: in vitro. As for the experimental part:
as §1

Another data set concerns human PBM cells. Put plainly: in vitro. Type of data set: cell-based. As for the experimental part:
The compounds were evaluated for their potential toxic effects on uninfected PHA-stimulated human PBM cells, in CEM (T-lymphoblastoid cell line obtained from American Type Culture Collection, Rockville, Md.) and Vero (African green monkey kidney) cells. PBM cells were obtained from whole blood of healthy seronegative donors (HIV-1 and hepatitis B virus) by single-step Ficoll-Hypaque discontinous gradient centrifugation. […] All of the cells were plated in 96-well cell culture plates containing ten-fold serial dilutions of the test drug. […] At the end of incubation, MTT tetrazolium dye solution (Cell titer 96®, Promega, Madison, Wis.) was added to each well and incubated overnight. The reaction was stopped with stop solubilization solution (Promega, Madison, Wis.). The plates were incubated for 5 hours to ensure that the formazan crystals were dissolved. The plates were read at a wavelength of 570 nm using an ELISA plate reader (Bio-tek instruments, Inc., Winooski, Vt., Model # EL 312e). […] Bookmark not defined.

Data set [3] has as its system CEM (T-lymphoblastoid cell line). The format is cell-based. As for the experimental part: (§2) The compounds were evaluated for their potential toxic effects on uninfected PHA-stimulated human PBM cells, in CEM (T-lymphoblastoid cell line obtained from American Type Culture Collection, Rockville, Md.) and Vero (African green monkey kidney) cells. PBM cells were obtained from whole blood of healthy seronegative donors (HIV-1 and hepatitis B virus) by single-step Ficoll-Hypaque discontinous gradient centrifugation. Log phase Vero, CEM and PHA-stimulated human PBM cells were seeded at a density of 5×10^3, 2.5×10^3 and 5×10^4 cells/well respectively. All of the cells were plated in 96-well cell culture plates containing ten-fold serial dilutions of the test drug. The cultures were incubated for 3, 4 and 5 days for Vero, CEM, and PBM cells, respectively in a humidified 5% CO2-air at 37° C. At the end of incubation, MTT tetrazolium dye solution (Cell titer 96®, Promega, Madison, Wis.) was added to each well and incubated overnight. The reaction was stopped with stop solubilization solution (Promega, Madison, Wis.). The plates were incubated for 5 hours to ensure that the formazan crystals were dissolved. The plates were read at a wavelength of 570 nm using an ELISA plate reader (Bio-tek instruments, Inc., Winooski, Vt., Model # EL 312e). […] Bookmark not defined.

The test system of data set [4] is Vero (African green monkey kidney) cells. Put plainly: in vitro. Type of data set: cell-based. As for the experimental part:
as §2

In the next data set the test system is HIV-1LAI. Put plainly: HIV assay in human PBM cells (RT activity of supernatant). Type of data set: cell-based. As to conditions: 5 days, read-out: Anti-HIV-1 Activity (EC50). An excerpt: Human peripheral blood mononuclear (PBM) cells (obtained from Atlanta Red Cross) were isolated by Ficoll-Hypaque discontinuous gradient centrifugation from healthy seronegative donors. Cells were stimulated with phytohemagglutinin A (Difco, Sparks, Md.) for 2-3 days prior to use. HIV-1LAI obtained from the Centers for Disease Control and Prevention (Atlanta, Ga.) was used as the standard reference virus for the antiviral assays. The molecular infetious clones HIV-1xxBru and HIV-1M184Vpin were obtained from Dr. John Mellors (University of Pittsburgh). Infections were done in bulk for one hour, either with 100 TCID50/1×10^7 cells for a flask (T25) assay or with 200 TCID50/6×10^5 cells/well for a 24 well plate assay. Cells were added to a plate or flask containing a ten-fold serial dilution of the test compound. Assay medium was RPMI-1640 supplemented with heat inactivated 16% fetal bovine serum, 1.6 mM L-glutamine, 80 IU/ml penicillin, 80 μg/ml streptomycin, 0.0008% DEAE-Dextran, 0.045% sodium bicarbonate, and 26 IU/ml recombinant interleukin-2 (Chiron Corp, Emeryville, Calif.). AZT was used as a positive control for the assay. Untreated and uninfected PBM cells were grown in parallel at equivalent cell concentrations as controls. The cell cultures were maintained in a humidified 5% CO2-air at 37° C. for 5 days and supernatants were collected for reverse transcriptase (RT) activity.
Supernatants were centrifuged at 12,000 rpm for 2 hours to pellet the virus. The pellet was solubilized with vortexing in 100 μl virus solubilization buffer (VSB) containing 0.5% Triton X-100, 0.8 M NaCl, 0.5 mM phenylmethylsulfonyl fluoride, 20% glycerol, and 0.05 M Tris, pH 7.8. Ten μL of each sample were added to 75 μL RT reaction mixture (0.06 M Tris, pH 7.8, 0.012 M MgCl2, 0.006 M dithiothreitol, 0.006 mg/ml poly (rA)n, oligo (dT)12-18, 96 μg/ml dATP, and 1 μM of 0.08 mCi/ml ^3H-thymidine triphosphate (Moravek Biochemicals, Brea, Calif.) and incubated at 37° C. for 2 hours. The reaction was stopped by the addition of 100 μL 10% trichloroacetic acid containing 0.05% sodium pyrophosphate. The acid insoluble product was harvested onto filter paper using a Packard Harvester (Meriden, Conn.), and the RT activity was read on a Packard Direct Beta Counter (Meriden, Conn.). The RT results were expressed in counts per minute (CPM) per milliliter.

In data set [5] the target is T2, adenosine deaminase (EC.3.5.4.4. from calf intestinal mucosa). Details: adenosine deaminase (EC.3.5.4.4. from calf intestinal mucosa); from tissue; host or cells: calf intestinal mucosa. As to conditions: literature value (ref. 28); cited from earlier work.
The next data set concerns HIV-1xxBRU. The following applies: cited from earlier work.
A further data set relates to HIV-1M184V. As to conditions: cited from earlier work.
Where [6] appears, read: human PBM cells, Ref. 11(b) Lee et al.

Where two headings read alike, the source gives them in different places. Where only a bound is given, the exact number is not on record here.

The term EC50 denotes the concentration giving half of the maximal effect. As to `Nc1nc(=O)n([C@@H]2CS[C@H](CO)O2)cc1F` [(−)-FTC, β-2′,3′-dideoxy-5-fluoro-3′-thiacytidine], in the data set on HBV, the EC50 is 0.24 µM.
By half-life is commonly meant how long it takes for the measured level to halve. Take `Nc1ncnc2c1ncn2[C@@H]1O[C@H](CO)[C@@H](O)[C@H]1O` [Adenosine, reference compound]: the half-life at 20 μM in data set [1] came to 30 s.
Broadly, the melting point is the temperature, or range, at which the solid turns liquid. Consider `Cc1cn([C@@H]2CC(F)(F)[C@H](CO)O2)c(=O)[nH]c1=O` [Compound 26, 1-(2,3-Dideoxy-3,3-difluoro-β-L-ribofuranosyl)thymine], for which the melting point is 140 °C (dec.).
As to `Cc1cn([C@@H]2C=C(F)[C@H](CO)O2)c(=O)[nH]c1=O` [Compound 28, 1-(2,3-dideoxy-3-fluoro-β-L-glycero-pent-2-eno-furanosyl)thymine], the melting point was 146 to 148 °C (dec.).
Broadly, the kcat is the maximal rate divided by the concentration of active sites. The term Km denotes the substrate concentration at which the rate is half of its maximum. As usually defined, the t½ is the time needed for the level to fall by half in the phase considered. One may read the IC50 as the midpoint of a concentration-inhibition curve. As for `Nc1ncnc2c1ncn2[C@@H]1S[C@H](CO)C=C1F` [Compound D-27, (−)-9-[(1R,4S)-2,3-dideoxy-2,3-didehydro-2-fluoro-4-thio-β-D-ribofuranosyl]-adenine], the kcat in [2] (25° C., pH 7.4, 0.15 unit of enzyme) came out at 0.94 s⁻¹. In data set [2] (25° C., phosphate buffer pH 7.4, substrate of ADA), the Km was determined as 18.3 µM. For the same molecule, in data set [2] (bovine), the t½ was 1980 s. In addition, the IC50 (with human PBM cells; in data set [3]; in [4]) was > 100 µM throughout. In addition, the EC50 with HIV-1LAI came to 8.1 µM.
As to `Nc1ncnc2c1ncn2[C@@H]1O[C@H](CO)C=C1F` [D-2′-F-d4A], the Michaelis-Menten constant (Km) in data set [5] is 23 µM.
A word on the EC90: it is the point of the concentration-response curve where the effect stands at 90%. Regarding `Nc1nc(=O)n([C@@H]2O[C@H](CO)C=C2F)cc1F` [β-D-2′-F-d4FC], the EC50 was 3.1 µM in the data set with HIV-1xxBRU (EC50 instead of EC90 (footnote g), Ref. 23, read-out: Activity WT (xxBRU), anti-HIV activity in EC50) and 9.6 µM with HIV-1M184V (EC50 instead of EC90 (footnote g), Ref. 23, read-out: Activity M184V, anti-HIV activity in EC50). Also, the 90% effect concentration (EC90) with HIV-1xxBRU (setting [6]) was 9.9 µM; in the data set with HIV-1M184V (setting [6]), 34.7 µM. In addition, the “FI, fold increase (EC90 HIV-1M184V/EC90 HIV-1xxBRU)” value with HIV-1M184V (Ref. 11(b) Lee et al.) is 3.5. For the same molecule, in the data set on HIV-1M184V (fold increase in EC50 (footnote g), Ref. 23), the “F1 (fold increase) in EC50” value is given as 3^g.

The values above are taken from patent US6949522B2, “β-2′- or 3′-halonucleosides” (Pharmasset, Inc., priority 2001, dated 2005).
